Reference: patent US20250122191A1, “COMPOUNDS AS BCL-2 INHIBITORS” (Fochon Biosciences, Ltd, priority 2021, published 2025)

How the values were obtained:
Format in all cases: cell-based
RS4;11-BCL-2 G101V cells = test: Cell proliferation assay (MTS), RS4;11-BCL-2 G101V engineered cells; settings: Homo sapiens, 120 h, read-out: RS4, 11 BCL2-G101V IC50
How it was run: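 Inhibition of mutant BCL-2 is inferred from reduced proliferation of RS4;11 cells stably overexpressing the mutant. Compounds are tested at 1.5–10000 nM for 120 h (G101V, F104L) or 72 h (D103E, D103Y), with MTS absorbance at 490 nm used to derive IC50.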

Toledo cells = test: Cell proliferation assay (MTS), Toledo cells; settings: Homo sapiens, 72 h
How it was run: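 Toledo cells (RPMI-1640, 10% FBS) seeded at 30000 cells/well, rested 4 h, then exposed 72 h at 37 °C, 5% CO2 to compound at nine final concentrations, 1.5–10000 nM. Viability by MTS (2 h), absorbance at 490 nm. IC50 from the concentration-response.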

RS4;11-BCL-2 F104L cells = test: Cell proliferation assay (MTS), RS4;11-BCL-2 F104L engineered cells; settings: Homo sapiens, 120 h, read-out: RS4, 11 BCL2-F104L IC50
Text: MTS testing kit was purchased from Promega (Madison, WI, USA). The RPMI-1640, Fetal bovine serum and Penicillin-Streptomycin were purchased from BI (Biological Industries, Beit Haemek, Israel). Puromycin was purchased from Beyotime (shanghai, China). Dimethyl sulfoxide (DMSO) was purchased from Sigma (St. Louis., MO, USA). RS4;11-BCL-2 G101V (Cobioer Lot. #: CBD2021063013P4), RS4;11-BCL-2 D103E (Cobioer Lot. #: CBD2021063013P4), RS4;11-BCL-2 D103Y (Cobioer Lot. #: CBD2022012101P4) and RS4;11-BCL-2 F104L (Cobioer Lot. #: CBD2021063014P4) cells were cultured in RPMI1640 supplemented with 1 ug/mL puromycin, 100 U/mL Penicillin-Streptomycin and 10% FBS.
To investigate whether a compound is able to inhibit the activity of BCL-2 mutation in cells, a mechanism-based assay using engineered cell lines stably overexpressing BCL-2 mutation (RS4;11-BCL-2 G101V, RS4;11-BCL-2 D103E, RS4;11-BCL-2 D103Y, and RS4;11-BCL-2 F104L) was developed. In this assay, the inhibition of BCL-2 mutation was reflected by the inhibition of cell proliferation of engineered RS4;11 cells. Cells were plated into 96-well plates at optimized cell density (RS4;11-BCL-2 G101V: 5000 cells/well; RS4;11-BCL-2 D103E: 7500 cells/well; RS4;11-BCL-2 D103Y: 7500 cells/well; RS4;11-BCL-2 F104L: 5000 cells/well). Plates were incubated at 37° C., with 5% CO2 for 4 h (RS4;11-BCL-2 G101V, RS4;11-BCL-2 F104L) and 24 h (RS4;11-BCL-2 D103E, RS4;11-BCL-2 D103Y), respectively. Compounds were serially diluted and added to the plates with the final concentrations of 10000, 3333.3, 1111.1, 370.4, 123.5, 41.2, 13.7, 4.6 and 1.5 nM. Plates were incubated at 37° C., with 5% CO2 for 120 h (RS4; 11-BCL-2 G101V, RS4; 11-BCL-2 F104L) and 72 h (RS4;11-BCL-2 D103E, RS4;11-BCL-2 D103Y), respectively. 20 μl MTS was added into each well and the plates were incubated at 37° C., with 5% CO2 exactly for 2 h. The absorbance was measured by a microplate reader at 490 nm. IC50 values were calculated using GraphPad Prism 8.0 software.

COc1nc2[nH]cc(F)c2cc1Oc1cc(N2CCC3(CC2)CC(N2CCOC[C@H]2c2ccccc2C(C)C)C3)ccc1C(=O)NS(=O)(=O)c1cnc(NC[C@H]2CC[C@](C)(O)CC2)c([N+](=O)[O-])c1 [Example 87, 2-((3-fluoro-6-methoxy-1H-pyrrolo[2,3-b]pyridin-5-yl)oxy)-N-((6-((((1r,4r)-4-hydroxy-4-methylcyclohexyl)methyl)amino)-5-nitropyridin-3-yl)sulfonyl)-4-(2-((R)-3-(2-isopropylphenyl)morpholino)-7-azaspiro[3.5]nonan-7-yl)benzamide]
IC50 (RS4;11-BCL-2 G101V cells): 1 nM | IC50 (Toledo cells): 1 nM | IC50 (RS4;11-BCL-2 F104L cells): 1 nM

COc1nc2[nH]cc(F)c2cc1Oc1cc(N2CCC3(CC2)CC(N2CCN(Cc4ccnc(C)c4)C[C@H]2c2ccccc2C(C)C)C3)ccc1C(=O)NS(=O)(=O)c1cnc(NC[C@H]2CC[C@](C)(O)CC2)c([N+](=O)[O-])c1 [Example 355, 2-((3-fluoro-6-methoxy-1H-pyrrolo[2,3-b]pyridin-5-yl)oxy)-N-((6-((((1r,4r)-4-hydroxy-4-methylcyclohexyl)methyl)amino)-5-nitropyridin-3-yl)sulfonyl)-4-(2-((R)-2-(2-isopropylphenyl)-4-((2-methylpyridin-4-yl)methyl)piperazin-1-yl)-7-azaspiro[3.5]nonan-7-yl)benzamide]
IC50 (RS4;11-BCL-2 G101V cells): 1 nM | IC50 (Toledo cells): 1 nM | IC50 (RS4;11-BCL-2 F104L cells): 1 nM

COc1cc(CN2CCN(C3CC4(CCN(c5ccc(C(=O)NS(=O)(=O)c6cnc(NC[C@H]7CC[C@](C)(O)CC7)c([N+](=O)[O-])c6)c(Oc6cc7c(F)c[nH]c7nc6OC)c5)CC4)C3)[C@H](c3ccccc3C(C)C)C2)cc2c1OCCC2 [Example 103, 2-((3-fluoro-6-methoxy-1H-pyrrolo[2,3-b]pyridin-5-yl)oxy)-N-((6-((((1r,4r)-4-hydroxy-4-methylcyclohexyl)methyl)amino)-5-nitropyridin-3-yl)sulfonyl)-4-(2-((R)-2-(2-isopropylphenyl)-4-((8-methoxychroman-6-yl)methyl)piperazin-1-yl)-7-azaspiro[3.5]nonan-7-yl)benzamide]
IC50 (Toledo cells): 1 nM | IC50 (RS4;11-BCL-2 F104L cells): 1 nM

COc1nc2[nH]cc(F)c2cc1Oc1cc(N2CCC3(CC2)CC(N2CCN(Cc4ccnc(Cl)c4)C[C@H]2c2ccccc2C(C)C)C3)ccc1C(=O)NS(=O)(=O)c1cnc(NC[C@H]2CC[C@](C)(O)CC2)c([N+](=O)[O-])c1 [Example 357, 4-(2-((R)-4-((2-chloropyridin-4-yl)methyl)-2-(2-isopropylphenyl)piperazin-1-yl)-7-azaspiro[3.5]nonan-7-yl)-2-((3-fluoro-6-methoxy-1H-pyrrolo[2,3-b]pyridin-5-yl)oxy)-N-((6-((((1r,4r)-4-hydroxy-4-methylcyclohexyl)methyl)amino)-5-nitropyridin-3-yl)sulfonyl)benzamide]
IC50 (Toledo cells): 1 nM | IC50 (RS4;11-BCL-2 F104L cells): 3 nM

COc1cc(CN2CCN(C3CC4(CCN(c5ccc(C(=O)NS(=O)(=O)c6cnc(NC[C@H]7CC[C@](C)(O)CC7)c([N+](=O)[O-])c6)c(Oc6cc7c(F)c[nH]c7nc6OC)c5)CC4)C3)[C@H](c3ccccc3C(C)C)C2)cc(C)n1 [Example 55, 2-((3-fluoro-6-methoxy-1H-pyrrolo[2,3-b]pyridin-5-yl)oxy)-N-((6-((((1r,4r)-4-hydroxy-4-methylcyclohexyl)methyl)amino)-5-nitropyridin-3-yl)sulfonyl)-4-(2-((R)-2-(2-isopropylphenyl)-4-((2-methoxy-6-methylpyridin-4-yl)methyl)piperazin-1-yl)-7-azaspiro[3.5]nonan-7-yl)benzamide]
IC50 (RS4;11-BCL-2 G101V cells): 1 nM | IC50 (RS4;11-BCL-2 F104L cells): 1 nM

COc1cc(CN2CCN(C3CC4(CCN(c5ccc(C(=O)NS(=O)(=O)c6cnc(NC[C@H]7CC[C@](C)(O)CC7)c([N+](=O)[O-])c6)c(Oc6cc7c(F)c[nH]c7nc6OC)c5)CC4)C3)[C@H](c3ccccc3C(C)C)C2)cc(C#N)n1 [Example 56, 4-(2-((R)-4-((2-cyano-6-methoxypyridin-4-yl)methyl)-2-(2-isopropylphenyl)piperazin-1-yl)-7-azaspiro[3.5]nonan-7-yl)-2-((3-fluoro-6-methoxy-1H-pyrrolo[2,3-b]pyridin-5-yl)oxy)-N-((6-((((1r,4r)-4-hydroxy-4-methylcyclohexyl)methyl)amino)-5-nitropyridin-3-yl)sulfonyl)benzamide]
IC50 (RS4;11-BCL-2 G101V cells): 2 nM | IC50 (RS4;11-BCL-2 F104L cells): 3 nM

COc1nc2[nH]cc(F)c2cc1Oc1cc(N2CCC3(CC2)CC(N2CCN(Cc4ccnc(OC(F)F)c4)C[C@H]2c2ccccc2C(C)C)C3)ccc1C(=O)NS(=O)(=O)c1cnc(NC[C@H]2CC[C@](C)(O)CC2)c([N+](=O)[O-])c1 [Example 67, 4-(2-((R)-4-((2-(difluoromethoxy)pyridin-4-yl)methyl)-2-(2-isopropylphenyl)piperazin-1-yl)-7-azaspiro[3.5]nonan-7-yl)-2-((3-fluoro-6-methoxy-1H-pyrrolo[2,3-b]pyridin-5-yl)oxy)-N-((6-((((1r,4r)-4-hydroxy-4-methylcyclohexyl)methyl)amino)-5-nitropyridin-3-yl)sulfonyl)benzamide]
IC50 (RS4;11-BCL-2 G101V cells): 1 nM | IC50 (RS4;11-BCL-2 F104L cells): 1 nM

COc1nc2[nH]cc(F)c2cc1Oc1cc(N2CCC3(CC2)CC(N2CCC[C@H]2c2ccccc2C(C)C)C3)ccc1C(=O)NS(=O)(=O)c1cnc(NC[C@H]2CC[C@](C)(O)CC2)c([N+](=O)[O-])c1 [Example 89, 2-((3-fluoro-6-methoxy-1H-pyrrolo[2,3-b]pyridin-5-yl)oxy)-N-((6-((((1r,4r)-4-hydroxy-4-methylcyclohexyl)methyl)amino)-5-nitropyridin-3-yl)sulfonyl)-4-(2-((S)-2-(2-isopropylphenyl)pyrrolidin-1-yl)-7-azaspiro[3.5]nonan-7-yl)benzamide]
IC50 (RS4;11-BCL-2 G101V cells): 1 nM | IC50 (RS4;11-BCL-2 F104L cells): 1 nM

COc1cc(CN2CCN(C3CC4(CCN(c5ccc(C(=O)NS(=O)(=O)c6cnc(NC[C@H]7CC[C@](C)(O)CC7)c([N+](=O)[O-])c6)c(Oc6cc7c(F)c[nH]c7nc6OC)c5)CC4)C3)[C@H](c3ccccc3C(C)C)C2)cc(N)n1 [Example 57, 4-(2-((R)-4-((2-amino-6-methoxypyridin-4-yl)methyl)-2-(2-isopropylphenyl)piperazin-1-yl)-7-azaspiro[3.5]nonan-7-yl)-2-((3-fluoro-6-methoxy-1H-pyrrolo[2,3-b]pyridin-5-yl)oxy)-N-((6-((((1r,4r)-4-hydroxy-4-methylcyclohexyl)methyl)amino)-5-nitropyridin-3-yl)sulfonyl)benzamide]
IC50 (RS4;11-BCL-2 G101V cells): 1 nM | IC50 (RS4;11-BCL-2 F104L cells): 1 nM

COc1ccc(CN2CCN(C3CC4(CCN(c5ccc(C(=O)NS(=O)(=O)c6cnc(NC[C@H]7CC[C@](C)(O)CC7)c([N+](=O)[O-])c6)c(Oc6cc7c(F)c[nH]c7nc6OC)c5)CC4)C3)[C@H](c3ccccc3C(C)C)C2)cc1F [Example 97, 4-(2-((R)-4-(3-fluoro-4-methoxybenzyl)-2-(2-isopropylphenyl)piperazin-1-yl)-7-azaspiro[3.5]nonan-7-yl)-2-((3-fluoro-6-methoxy-1H-pyrrolo[2,3-b]pyridin-5-yl)oxy)-N-((6-((((1r,4r)-4-hydroxy-4-methylcyclohexyl)methyl)amino)-5-nitropyridin-3-yl)sulfonyl)benzamide]
IC50 (Toledo cells): 1 nM | IC50 (RS4;11-BCL-2 F104L cells): 1 nM

COc1nc2[nH]cc(F)c2cc1Oc1cc(N2CCC3(CC2)CC(N2CCN(Cc4ccc(S(C)(=N)=O)cc4)C[C@H]2c2ccccc2C(C)C)C3)ccc1C(=O)NS(=O)(=O)c1cnc(NC[C@H]2CC[C@](C)(O)CC2)c([N+](=O)[O-])c1 (stereo partly drawn) [Example 336, 2-((3-fluoro-6-methoxy-1H-pyrrolo[2,3-b]pyridin-5-yl)oxy)-N-((6-((((1r,4r)-4-hydroxy-4-methylcyclohexyl)methyl)amino)-5-nitropyridin-3-yl)sulfonyl)-4-(2-((2R)-2-(2-isopropylphenyl)-4-(4-(S-methylsulfonimidoyl)benzyl)piperazin-1-yl)-7-azaspiro[3.5]nonan-7-yl)benzamide]
IC50 (Toledo cells): 1 nM | IC50 (RS4;11-BCL-2 F104L cells): 1 nM
